Data as given in US7459444B2, “Inhibitors of chymase” (Janssen Pharmaceutica N.V., priority 2004, dated 2008).

molecular target: T1, human skin chymase (Homo sapiens, UniProt P23946); assay: Enzyme-catalyzed hydrolysis assay (chymase inhibition); type: biochemical; details: 10 nM enzyme, 0.7 mM Suc-Ala-Ala-Pro-Phe-pNa, pH 8.0, 37° C., 30 minutes
T1 construct: using human skin chymase (Cortex Biochem); purchased Cortex Biochem
T1 sequence (P23946 22-247): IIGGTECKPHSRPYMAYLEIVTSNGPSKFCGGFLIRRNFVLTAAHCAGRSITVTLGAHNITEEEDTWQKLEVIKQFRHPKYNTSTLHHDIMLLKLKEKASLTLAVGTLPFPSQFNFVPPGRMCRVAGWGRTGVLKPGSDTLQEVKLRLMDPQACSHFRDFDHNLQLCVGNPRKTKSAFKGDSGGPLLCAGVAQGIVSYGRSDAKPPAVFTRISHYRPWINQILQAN
Method: Enzyme-catalyzed hydrolysis rates were measured spectro-photometrically using human skin chymase (Cortex Biochem), a chromogenic substrate (Suc-Ala-Ala-Pro-Phe-pNa) (Bachem) in aqueous buffer (450 mM Tris, 1800 mM NaCl, pH 8.0), and a microplate reader (Molecular Devices). […] Percent inhibition was calculated by comparing the initial reaction slopes of the samples without inhibitor to those with inhibitor. IC50 values were determined using a four parameter fit logistics model. The term “NT” indicates a compound that was not tested.

Molecule	IC50 [µM]
CN(Cc1ccccc1)Cc1cc2ccccc2cc1NC(=O)C(c1cccc2ccccc12)P(=O)(O)O (centres unmarked) [Cpd 142]	9.54 ± 4.2
O=C(O)C(C(=O)Nc1ccc2ccccc2c1)c1csc2ccc(Cl)cc12 (centres unmarked) [Cpd 84, [(5-Chloro-benzo[b]thiophen-3-yl)-(naphthalen-2-ylcarbamoyl)-methyl]-carboxylic acid]	1.75 ± 0.285
O=C(Nc1cc2ccccc2cc1C(=O)N1CCC(c2ccccc2)CC1)C(c1cccc2ccccc12)P(=O)(O)O (centres unmarked) [Cpd 101]	3.12
COc1ccc(CCN(C)C(=O)c2cc3ccccc3cc2NC(=O)C(c2cccc3ccccc23)P(=O)(O)O)cc1OC (centres unmarked) [Cpd 115]	5.36
O=C(Nc1ccc2ccccc2c1)C(C1=CS(=O)(=O)c2ccc(Cl)cc21)P(=O)(O)O (centres unmarked) [Cpd 86, [(5-Chloro-1,1-dioxo-1H-1λ^6-benzo[b]thiophen-3-yl)-(naphthalen-2-ylcarbamoyl)-methyl]-phosphonic acid]	1.9 ± 0.4
CP(=O)(O)C(C(=O)NC=Cc1ccc(C#N)cc1)c1csc2ccc(Cl)cc12 (centres unmarked) [Cpd 157]	11 ± 1.2
O=C(Nc1ccc2c(c1)Cc1ccccc1-2)C(c1cccc2ccccc12)P(=O)(O)O (centres unmarked) [Cpd 106]	4.3
CP(=O)(O)C(C(=O)N/C=C/c1ccccc1NC(=O)NC(N)=O)c1csc2ccc(Cl)cc12 (centres unmarked) [Cpd 159]	3 ± 0.19
O=C(Nc1cc2ccccc2cc1C(=O)N1CCC(n2c(=O)[nH]c3ccccc32)CC1)C(c1cccc2ccccc12)P(=O)(O)O (centres unmarked) [Cpd 93]	2.7
O=C(Nc1cccc(Oc2ccccc2)c1)C(c1cccc2ccccc12)P(=O)(O)O (centres unmarked) [Cpd 138]	8.7
CN(Cc1cc2ccccc2cc1NC(=O)C(c1cccc2ccccc12)P(=O)(O)O)C1CCN(C(=O)c2ccc3ccccc3c2)CC1 (centres unmarked) [Cpd 102, {[3-({Methyl-[1-(naphthalene-2-carbonyl)-piperidin-4-yl]-amino}-methyl)-naphthalen-2-ylcarbamoyl]-naphthalen-1-yl-methyl}-phosphonic acid]	3.45
O=C(Nc1cc2ccccc2cc1C(=O)N1CCC2(CC1)C(=O)NCN2c1ccccc1)C(c1cccc2ccccc12)P(=O)(O)O (centres unmarked) [Cpd 104]	3.88 ± 2.41
CC1CCCC(NCc2cc3ccccc3cc2NC(=O)C(c2cccc3ccccc23)P(=O)(O)O)C1 (centres unmarked) [Cpd 90]	2.15
CN(CCCC1c2ccccc2C=Cc2ccccc21)Cc1cc2ccccc2cc1NC(=O)C(c1cccc2ccccc12)P(=O)(O)O (centres unmarked) [Cpd 112]	4.74 ± 1.65
O=C(Nc1ccc2ccccc2c1)C(c1cc2ccccc2s1)P(=O)(O)O (centres unmarked) [Cpd 140, [(Benzo[b]thiophen-2-yl)-(naphthalen-2-ylcarbamoyl)-methyl]-phosphonic acid]	9.2 ± 0.73
O=C(COc1cc2ccccc2cc1NC(=O)C(c1cccc2ccccc12)P(=O)(O)O)NCCCc1ccccc1 (centres unmarked) [Cpd 130]	7.44 ± 3.73
O=C(Nc1cc2ccccc2cc1C(=O)N1CCC(c2nc3ccccc3s2)CC1)C(c1cccc2ccccc12)P(=O)(O)O (centres unmarked) [Cpd 113]	4.8 ± 1.69
O=C(Nc1ccccc1)Oc1cc2ccccc2cc1NC(=O)C(c1cccc2ccccc12)P(=O)(O)O (centres unmarked) [Cpd 95, [Naphthalen-1-yl-(3-phenylcarbamoyloxy-naphthalen-2-yl-carbamoyl)-methyl]-phosphonic acid]	2.8
O=C(Nc1ccc2ccccc2n1)C(c1cccc2ccccc12)P(=O)(O)O (centres unmarked) [Cpd 96]	2.8
O=C(Nc1cc2ccccc2cc1CNCCCCCO)C(c1cccc2ccccc12)P(=O)(O)O (centres unmarked) [Cpd 133]	8.08 ± 3.15
CC(C)OC(=O)c1cc2ccccc2cc1NC(=O)C(c1cccc2ccccc12)P(=O)(O)O (centres unmarked) [Cpd 139]	8.8
O=C(Nc1ccccc1)OCc1cc2ccccc2cc1NC(=O)C(c1cccc2ccccc12)P(=O)(O)O (centres unmarked) [Cpd 94]	2.75
O=C(Nc1cc2ccccc2cc1C(=O)N1CCC(n2nnc3ccccc32)CC1)C(c1cccc2ccccc12)P(=O)(O)O (centres unmarked) [Cpd 100]	3 ± 1.43
O=C(Nc1ccc2ccccc2c1)OCc1cc2ccccc2cc1NC(=O)C(c1cccc2ccccc12)P(=O)(O)O (centres unmarked) [Cpd 105]	4.1
CP(=O)(O)C(C(=O)Nc1ccc2ccccc2c1)c1c(C(=O)NCc2ccccc2)sc2ccccc12 (centres unmarked) [Cpd 127]	7 ± 1.1

Further lines, results first:

IC50 [µM]	Molecule
0.1 ± 0.03	O=C(Nc1ccc2ccccc2c1)C(c1csc2ccc(Br)cc12)P(=O)(O)O (centres unmarked) [Cpd 23, [(5-Bromo-benzo[b]thiophen-3-yl)-(naphthalen-2-ylcarbamoyl)-methyl]-phosphonic acid]
0.0031	CP(=O)(O)C(C(=O)N/C=C/c1cc(Cl)cc(Cl)c1)c1csc2ccc(Cl)cc12 (centres unmarked) [Cpd 170]
0.036 ± 0.01	CP(=O)(O)C(C(=O)N/C=C/c1c(F)cccc1F)c1csc2ccc(Cl)cc12 (centres unmarked) [Cpd 156]
0.06 ± 0.01	CP(=O)(O)C(C(=O)N/C=C/c1cccc(OC(F)(F)F)c1)c1csc2ccc(Cl)cc12 (centres unmarked) [Cpd 153]
1.4 ± 0.6	COC(=O)c1cc2ccccc2cc1NC(=O)C(c1cccc2ccccc12)P(=O)(O)O (centres unmarked) [Cpd 75, 3-(2-Naphthalen-1-yl-2-phosphono-acetylamino)-naphthalene-2-carboxylic acid methyl ester]
0.63 ± 0.13	Cn1cc(C(C(=O)Nc2ccc3ccccc3c2)P(=O)(O)O)c2cccc(Cl)c21 (centres unmarked) [Cpd 58]
0.49 ± 0.16	COc1ccc(CCCP(=O)(O)C(C(=O)Nc2ccc3ccccc3c2)c2csc3ccc(Cl)cc23)cc1 (centres unmarked) [Cpd 53]
0.868 ± 0.13	O=C(NC=Cc1ccc(O)cc1)C(c1csc2ccc(Cl)cc12)P(=O)(O)O (centres unmarked) [Cpd 66]
1.65 ± 0.68	[(5-Chloro-benzo[b]thiophen-3-yl)-(naphthalen-2-ylcarbamoyl)-methyl]-carbamate [Cpd 80]
1.44 ± 0.48	CP(=O)(O)C(C(=O)NC=Cc1ccccc1[N+](=O)[O-])c1csc2ccc(Cl)cc12 (centres unmarked) [Cpd 147]
0.1 ± 0.033	CP(=O)(O)C(C(=O)N/C=C/c1ccc(F)cc1)c1csc2ccc(Cl)cc12 (centres unmarked) [Cpd 24]
0.0059 ± 0.01	COc1cc(/C=C/NC(=O)C(c2csc3ccc(Cl)cc23)P(C)(=O)O)cc(OC)c1 (centres unmarked) [Cpd 168]
1.48 ± 0.45	CC(C)n1cc(C(C(=O)Nc2ccc3ccccc3c2)P(=O)(O)O)c2ccccc21 (centres unmarked) [Cpd 77]
0.091 ± 0.02	CP(=O)(O)C(C(=O)N/C=C/c1ccccn1)c1csc2ccc(Cl)cc12 (centres unmarked) [Cpd 150]
0.043	CP(=O)(O)C(C(=O)N/C=C/c1ccccc1O)c1csc2ccc(Cl)cc12 (centres unmarked) [Cpd 149, {(5-Chloro-benzo[b]thiophen-3-yl)-[2-(2-hydroxy-phenyl)-vinylcarbamoyl]-methyl}-methyl-phosphinic acid]
1.43 ± 0.451	O=C(Nc1ccc2ccccc2c1)C(c1csc2cc(Br)ccc12)P(=O)(O)O (centres unmarked) [Cpd 76]
0.48 ± 0.18	Cn1cc(C(C(=O)Nc2ccc3ccccc3c2)P(=O)(O)O)c2ccc(Cl)cc21 (centres unmarked) [Cpd 52]
0.23 ± 0.04	CC(=O)Oc1ccccc1/C=C/NC(=O)C(c1csc2ccc(Cl)cc12)P(C)(=O)O (centres unmarked) [Cpd 148]
0.22 ± 0.01	COCCCP(=O)(O)C(C(=O)Nc1ccc2ccccc2c1)c1csc2ccc(Cl)cc12 (centres unmarked) [Cpd 34]

IC50 [µM]	Molecule
1.7 ± 0.41	O=C(Nc1ccc2ccccc2c1)C(c1cn(-c2ccccc2)c2ccccc12)P(=O)(O)O (centres unmarked) [Cpd 82, [(Naphthalen-2-ylcarbamoyl)-(1-phenyl-1H-indol-3-yl)-methyl]-phosphonic acid]
0.038 ± 0.013	Nc1ccc(/C=C/NC(=O)C(c2csc3ccc(Cl)cc23)P(=O)(O)O)cc1 (centres unmarked) [Cpd 12]
0.17 ± 0.01	O=C(Nc1ccc2ncsc2c1)C(c1csc2ccc(Cl)cc12)P(=O)(O)O (centres unmarked) [Cpd 30]
0.82 ± 0.5	O=C(Nc1ccc2ccccc2c1)C(c1cn(CC2CC2)c2ccccc12)P(=O)(O)O (centres unmarked) [Cpd 62]
0.35 ± 0.07	O=C(Nc1ccc2ccccc2c1)C(c1csc2ccc(Cl)cc12)P(=O)(O)CCCc1ccc(O)cc1 (centres unmarked) [Cpd 43]
0.421 ± 0.151	O=C(Nc1ccc2ccccc2c1)C(c1csc2ccc(Cl)cc12)P(=O)(O)CCCc1ccccc1 (centres unmarked) [Cpd 48]
0.46 ± 0.06	O=C(Nc1ccc2ccccc2c1)C(c1csc2ccc(Cl)cc12)P(=O)(O)CCCCc1ccccc1 (centres unmarked) [Cpd 51]
0.042	CP(=O)(O)C(C(=O)N/C=C/c1cc(F)ccc1F)c1csc2ccc(Cl)cc12 (centres unmarked) [Cpd 169]
0.1 ± 0.02	CP(=O)(O)C(C(=O)N/C=C/c1ccccc1Br)c1csc2ccc(Cl)cc12 (centres unmarked) [Cpd 164]
0.035 ± 0.02	COc1ccccc1/C=C/NC(=O)C(c1csc2ccc(Cl)cc12)P(C)(=O)O (centres unmarked) [Cpd 145]
0.609	O=C(Nc1cnc2ccccc2c1)C(c1cccc2ccccc12)P(=O)(O)O (centres unmarked) [Cpd 57]
0.371 ± 0.11	O=P(O)(O)C(C(=S)Nc1ccc2ccccc2c1)c1csc2ccc(Cl)cc12 (centres unmarked) [Cpd 45, [(5-Chloro-benzo[b]thiophen-3-yl)-(naphthalen-2-ylthiocarbamoyl)-methyl]-phosphonic acid]
0.021 ± 0.01	O=C(Nc1cc(NC(=O)C(c2cccc3ccccc23)P(=O)(O)O)cc2ccccc12)C1CCN(C(=O)c2ccc3ccccc3c2)CC1 (centres unmarked) [Cpd 8, [(4-{[1-(Naphthalene-2-carbonyl)-piperidine-4-carbonyl]-amino}-naphthalen-2-ylcarbamoyl)-naphthalen-1-yl-methyl]-phosphonic acid]
1 ± 0.3	O=C(Nc1ccc2ccccc2c1)C(c1csc2ccc(-c3ccccc3)cc12)P(=O)(O)O (centres unmarked) [Cpd 71, [(5-phenyl-benzo[b]thiophen-3-yl)-(naphthalen-2-ylcarbamoyl)-methyl]-phosphonic acid]
0.25 ± 0.12	O=C(N/C=C/c1ccccc1)C(c1cccc2ccccc12)P(=O)(O)O (centres unmarked) [Cpd 37]
0.34 ± 0.04	Cc1ccccc1C=CNC(=O)C(c1csc2ccc(Cl)cc12)P(C)(=O)O (centres unmarked) [Cpd 155]
0.635	O=C(Nc1ccc2ccsc2c1)C(c1cccc2ccccc12)P(=O)(O)O (centres unmarked) [Cpd 59]
0.04 ± 0.02	Cn1cc(C(C(=O)Nc2ccc3ccccc3c2)P(=O)(O)O)c2cc(Br)ccc21 (centres unmarked) [Cpd 13]
